This experiment deals with T1, ADAR1p110 (Homo sapiens, UniProt P55265).
T1 construct: HAT (N); made in house; host or cells: Sf9 cells (baculovirus)
T1 sequence (P55265 1-931 isoform P55265-5): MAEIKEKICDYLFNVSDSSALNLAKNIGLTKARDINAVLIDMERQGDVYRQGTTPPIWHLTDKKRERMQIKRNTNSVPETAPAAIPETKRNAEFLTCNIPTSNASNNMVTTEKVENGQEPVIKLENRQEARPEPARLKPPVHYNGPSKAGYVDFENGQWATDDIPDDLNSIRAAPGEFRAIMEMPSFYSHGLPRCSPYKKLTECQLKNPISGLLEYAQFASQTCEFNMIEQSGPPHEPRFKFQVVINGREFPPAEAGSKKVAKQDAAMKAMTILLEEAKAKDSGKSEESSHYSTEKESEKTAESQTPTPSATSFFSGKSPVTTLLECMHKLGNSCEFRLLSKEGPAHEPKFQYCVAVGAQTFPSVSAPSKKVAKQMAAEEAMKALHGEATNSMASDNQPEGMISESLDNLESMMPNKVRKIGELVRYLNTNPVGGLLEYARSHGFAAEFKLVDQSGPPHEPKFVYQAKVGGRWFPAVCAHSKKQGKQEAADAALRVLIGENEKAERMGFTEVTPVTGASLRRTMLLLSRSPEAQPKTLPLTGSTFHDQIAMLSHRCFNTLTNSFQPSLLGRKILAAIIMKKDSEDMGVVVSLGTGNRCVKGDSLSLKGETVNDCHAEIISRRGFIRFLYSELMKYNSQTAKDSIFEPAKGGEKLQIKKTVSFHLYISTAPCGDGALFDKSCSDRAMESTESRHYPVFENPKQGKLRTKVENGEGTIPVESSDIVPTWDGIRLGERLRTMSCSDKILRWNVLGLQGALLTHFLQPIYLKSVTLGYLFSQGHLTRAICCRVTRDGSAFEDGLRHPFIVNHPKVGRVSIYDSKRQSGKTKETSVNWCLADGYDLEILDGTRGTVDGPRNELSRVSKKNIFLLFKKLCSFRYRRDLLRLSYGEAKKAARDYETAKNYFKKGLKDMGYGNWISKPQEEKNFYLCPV
Put plainly: In vitro editing assay with recombinant ADAR1p110 and synthetic dsRNA. Format: biochemical. To be noted: for IC50: ADAR1p110, dose-dependent in vitro editing assay; for Inhibition of ADAR1p110 editing: in vitro editing assay, result in words. The protocol:
In vitro editing assay using purified HAT-ADAR1p110 and a synthetic dsRNA was conducted at varying concentrations of ADAR1i-124. The editing efficiency was determined by the guanosine peak replacing the adenosine peak of cDNA sequencing chromatograms.
The in vitro editing reaction mixture, containing 5 nM of telomere RNA:RNA duplex substrates and 75 nM of HAT-ADAR1p110-WT, FLAG-ADAR1p110-WT, or HA-ADAR1p110-EAA protein, was incubated at 37° C. for 2 h in in vitro editing buffer I (20 mM HEPES-KOH PH 7.5, 100 mM NaCl, 0.01% NP-40, 5% glycerol, 1 mM DTT). For editing of RNA:DNA hybrid substrates, in vitro editing buffer II (20 mM HEPES-KOH PH 7.5, 20 mM NaCl, 0.01% NP-40, 5% glycerol, 1 mM DTT) was used. Edited RNA or DNA strands were purified using Dynabeads MyOne Streptavidin C1 (Thermo Fisher Scientific). To remove opposite RNA or DNA strands, rNase H (NEB) or TURBO dNase (Thermo Fisher Scientific) was used, respectively. For sequencing of edited substrates, reverse transcription-PCR was carried out for RNA strands, while PCR was carried out for DNA strands. RT reactions were carried out using SuperScript III Reverse Transcriptase (Thermo Fisher Scientific), and PCR reactions were performed using Platinum Taq DNA polymerase (Thermo Fisher Scientific). PCR products were sequenced using a specific sequencing primer, and the ratio of A and G peaks in the chromatograms were analyzed by CodonCode Aligner (CodonCode Corporation).
In a previous study, the 54 compounds identified in the high-throughput screen were further tested in the in vitro editing assay described in Examples 2 and 3. The in vitro editing reaction mixture, containing 5 nM of telomere RNA:RNA duplex substrates and 75 nM of HAT-ADAR1p110-WT, FLAG-ADAR1p110-WT, or HA-ADAR1p110-EAA protein, was incubated at 37° C. for 2 h in in vitro editing buffer I (20 mM HEPES-KOH PH 7.5, 100 mM NaCl, 0.01% NP-40, 5% glycerol, 1 mM DTT) with 10 microM test compound. For editing of RNA:DNA hybrid substrates, in vitro editing buffer II (20 mM HEPES-KOH PH 7.5, 20 mM NaCl, 0.01% NP-40, 5% glycerol, 1 mM DTT) was used. Edited RNA or DNA strands were purified using Dynabeads MyOne Streptavidin C1 (Thermo Fisher Scientific). To remove opposite RNA or DNA strands, Rnase H (NEB) or TuRBO Dnase (Thermo Fisher Scientific) was used, respectively. For sequencing of edited substrates, reverse transcription-PCR was carried out for RNA strands, while PCR was carried out for DNA strands. RT reactions were carried out using SuperScript III
Reverse Transcriptase (Thermo Fisher Scientific), and PCR reactions were performed using Platinum Taq DNA polymerase (Thermo Fisher Scientific). PCR products were sequenced using a specific sequencing primer, and the ratio of A and G peaks in the chromatograms were analyzed by CodonCode Aligner (CodonCode Corporation).

The values below come from patent publication US20260272878A1, “ADAR1 INHIBITORS AND USES THEREOF” (THE WISTAR INSTITUTE OF ANATOMY AND BIOLOGY, priority 2023, published 2026).

“Also recorded” adds a separate entry of the source.

As a reminder, the IC50 is the midpoint of a concentration-inhibition curve. For the compound `N#Cc1ccccc1NC(=O)c1sc2ccccc2c1Cl` [ADAR1i-120], the IC50 lay in the range of 10 to 20 µM and the “Inhibition of ADAR1p110 editing” value is on record as “ADAR1 inhibitory activities”.

Take `N#Cc1ccc(NC(=O)c2c(Cl)c3ccccc3n2CO)cc1` [ADAR1i-124]: the IC50 lay within 10 to 20 µM; the “Inhibition of ADAR1p110 editing” value is “ADAR1 inhibitory activities; also recorded: inhibited both ADAR1p150 and ADAR1p-110”.

Consider `N#Cc1ccc(NC(=O)c2sc3ccccc3c2Cl)cc1` [ADAR1i-13, 3-chloro-N-(4-cyanophenyl)-1-benzothiophene-2-carboxamide], for which the IC50 was in the range of 10 to 20 µM and the “Inhibition of ADAR1p110 editing” value is listed as “inhibited ADAR1p110 editing of all three substrates tested, including the DNA:RNA hybrid substrate”. For the same compound, under “recombinant ADAR1p110, matched and mismatched dsRNA substrates, 10 microM test compound”, the “Substrate preference of editing inhibition (matched vs A-C mismatched dsRNA)” value was “preferentially inhibited matched adenosines”.
